Each structure is given as a SMILES string.

The target in the first test is T1, recombinant human glucokinase (Homo sapiens, UniProt P35557).
T1 construct: Full-length glucokinase (beta cell isoform) was His-tagged at the N-terminus and purified by a Ni column followed by size exclusion chromatography as described above; His tag; made in house; host or cells: E. coli BL21(DE3), vector pBCGK
T1 sequence (P35557 1-465): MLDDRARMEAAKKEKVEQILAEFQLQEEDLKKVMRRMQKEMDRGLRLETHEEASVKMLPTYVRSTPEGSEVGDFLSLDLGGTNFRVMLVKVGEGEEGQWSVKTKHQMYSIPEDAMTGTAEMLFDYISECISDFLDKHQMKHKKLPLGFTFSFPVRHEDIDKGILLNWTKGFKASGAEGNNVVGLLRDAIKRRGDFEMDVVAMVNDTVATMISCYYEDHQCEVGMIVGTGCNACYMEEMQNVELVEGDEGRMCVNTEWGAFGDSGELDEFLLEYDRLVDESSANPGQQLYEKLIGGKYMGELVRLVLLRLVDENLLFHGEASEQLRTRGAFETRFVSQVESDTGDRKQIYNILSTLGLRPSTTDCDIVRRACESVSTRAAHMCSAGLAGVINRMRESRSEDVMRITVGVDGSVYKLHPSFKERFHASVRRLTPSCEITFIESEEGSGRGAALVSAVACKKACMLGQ
As to the kind of experiment: Assay 2: Evaluating Activator Potency in a Matrix Assay at Multiple Glucose Concentrations. The note with it: Assay 2 matrix assay; 16 glucose concentrations; intrinsic EC50 = concentration affording a 50% reduction in the enzyme's Km (for glucose); read-out: Glucokinase EC50. The format is biochemical.
Take `CC(C)n1cc2c(Oc3cnc(C(=O)N4CCC4)cn3)cc(C(=O)Nc3cnn(C)n3)cc2n1` [Example 1BY, 4-(5-(azetidine-1-carbonyl)pyrazin-2-yloxy)-2-isopropyl-N-(2-methyl-2H-1,2,3-triazol-4-yl)-2H-indazole-6-carboxamide]: the EC50 was determined as 17500 nM.

Still in this test, the particulars now being: Glucokinase EC50, Assay 2 matrix assay; 16 glucose concentrations; intrinsic EC50 = concentration affording a 50% reduction in the enzyme's Km (for glucose).
Regarding `CCn1cc2c(Oc3cnc(C(=O)N4CCC4)c(F)c3)cc(C(=O)Nc3cnc(C)cn3)cc2n1` [Example 1AZ, 4-(6-(azetidine-1-carbonyl)-5-fluoropyridin-3-yloxy)-2-ethyl-N-(5-methylpyrazin-2-yl)-2H-indazole-6-carboxamide], the 50% effective concentration (EC50) stood at 108 nM.

A further test concerns the target T2, recombinant human glucokinase (beta cell isoform) (Homo sapiens, UniProt P35557).
T2 construct: Full-length glucokinase (beta cell isoform) was His-tagged at the N-terminus; His tag (N); made in house; host or cells: E. coli BL21(DE3), vector pBCGK
T2 sequence (P35557 1-465): T1 sequence (P35557 1-465)
As to the kind of experiment: Assay 1: Evaluating Activator Potency and Maximum Activation at 5 mM Glucose. In kind it is biochemical. The conditions noted are these: Assay 1; 5 mM glucose; NADH depletion at 340 nm, PK/LDH coupled; read-out: Glucokinase EC50. The protocol:
Representative compounds of this invention were evaluated in biochemical assays (Assay 1 or Assay 2) to characterize their glucokinase activation properties.
The recombinant human glucokinase protein utilized in both assays was prepared and purified as described below.
BL21(DE3) cells (Invitrogen Corporation, Carlsbad, Calif.) containing pBCGK (C or N H is) vector were grown at 37° C. (in 2XYT) until the OD600 was between 0.6-1.0. Expression was induced by addition of isopropylthiogalactoside to a final concentration of 0.1-0.2 mM to the cells which were then incubated overnight at 23° C. The next day, cells were harvested via centrifugation at 5000 rpm for 15 minutes at 4° C. The cell pellet was stored at −80° C. for future purification.
Beta Cell Glucokinase His-Taq Purification Conditions: A Ni-NTA (Quigan, Germantown, Md.) column (15-50 mL) was used for separation. Two buffers were prepared, 1) a lysis/nickel equilibration and wash buffer and 2) a nickel elution buffer. The lysis/equilibration/wash buffer was prepared as such: 25 mM HEPES buffer at pH 7.5, 250 mM NaCl, 20 mM imidazole, and 14 mM β-mercaptoethanol as final concentrations. The elution buffer was prepared as such: 25 mM HEPES at pH 7.5, 250 mM NaCl, 400 mM imidazole, and 14 mM β-mercaptoethanol as final concentrations. The buffers were each filtered with a 0.22 μm filter prior to use. The cell pellet (1 L culture) was resuspended in 300 mL of the lysis/equilibration buffer. The cells were then lysed (3 times) with a Microfluidics Model 110Y microfluidizer (Microfluidics Corporation, Newton, Mass.). The slurry was centrifuged with a Beckman Coulter Model LE-80K ultracentrifuge (Beckman Coulter, Fullerton, Calif.) at 40,000 rpm for 45 minutes at 4° C. The supernatant was transferred to a chilled flask. A volume of 20 μl was saved for gel analysis. A Pharmacia AKTA (GMI, Inc., Ramsey, Minn.) purification system was used for separation. The prime lines were purged with lysis/equilibration buffer. The Ni-NTA column was equilibrated with 200 mL of the lysis/equilibration buffer at a flow rate of 5 mL/minute. The supernantant was loaded over the column at 4 mL/minute and the flow-through was collected in a flask. The unbound proteins were washed with lysis/equilibration buffer at a flow rate of 5 mL/minute until the ultraviolet reaches baseline. The protein was then eluted from the column with the imidazole elution buffer via imidazole gradient 20 mM to 400 mM over 320 mL. The column was then stripped of any additional protein with 80 mL of the elution buffer. The elution fractions were each 8 mL, for a total yield of 50 samples. Fractions were analyzed by sodium dodecyl sulfate polyacrylamide (SDS-PAGE) and the fractions containing protein of interest were pooled and concentrated to 10 mL using ultrafiltration cell with a 10,000 molecular weight cut-off (MWCO) Millipore membrane (Sigma-Aldrich, St. Louis, Mo.) under nitrogen gas (60 psi). Protein was further purified by size exclusion chromatography (SEC) using a […] (320 mL) (Amersham Pharmacia, Uppsala, Sweden). SEC was equilibrated with 450 mL sizing buffer containing 25 mM HEPES pH 7.0, 50 mM NaCl, and 5 mM dithiothreitol. Concentrated protein was then loaded over SEC and elution with 400 mL sizing buffer was performed overnight at 0.5 mL/minute. The elution fractions were 5 mL each. The fractions were analyzed by SDS-PAGE and protein containing fractions were pooled. Concentration was measured using Bradford Assay/BSA Standard. Purified protein was stored in small aliquots at −80° C.
Assay 1: Evaluating Activator Potency and Maximum Activation at 5 mM Glucose
Full-length glucokinase (beta cell isoform) was His-tagged at the N-terminus and purified by a Ni column followed by size exclusion chromatography as described above. Glucose was obtained from Calbiochem (San Diego, Calif.) and other reagents were purchased from Sigma-Aldrich (St. Louis, Mo.).
On to `CCn1cc2c(Oc3ccc(S(=O)(=O)C4CC4)cc3)cc(C(=O)Nc3cnc(C)cn3)cc2n1` [Example 1W, 4-[4-(cyclopropylsulfonyl)phenoxy]-2-ethyl-N-(5-methylpyrazin-2-yl)-2H-indazole-6-carboxamide], for which the concentration giving a half-maximal response (EC50) is 1480 nM.
Turning to `Cn1ccc(NC(=O)c2cc(Oc3cnc(C(F)(F)F)cn3)c3cn(C)nc3c2)n1` [Example 1J, 2-methyl-N-(1-methyl-1H-pyrazol-3-yl)-4-{[5-(trifluoromethyl)pyrazin-2-yl]oxy}-2H-indazole-6-carboxamide], the concentration for a half-maximal effect (EC50) came to 22400 nM.
Consider `Cc1ccc(NC(=O)c2cc(Oc3cnc(C(=O)N(C)C)nc3)c3cn(C)nc3c2)nc1` [Example 1Z, 4-{[2-(dimethylcarbamoyl)pyrimidin-5-yl]oxy}-2-methyl-N-(5-methylpyridin-2-yl)-2H-indazole-6-carboxamide], for which the EC50 was found to be 1080 nM.
With `Cc1cnc(NC(=O)c2cc(Oc3ccc(S(=O)(=O)C4CC4)cc3)c3cn(C)nc3c2)cn1` [Example 1U, 4-[4-(cyclopropylsulfonyl)phenoxy]-2-methyl-N-(5-methylpyrazin-2-yl)-2H-indazole-6-carboxamide], the EC50 is 1890 nM.
Same read-out and setting: next, `Cc1ccc(NC(=O)c2cc(Oc3cnc(C(=O)N(C)C)cn3)c3cn(C)nc3c2)nc1` [Example 1G, 4-{[5-(dimethylcarbamoyl)pyrazin-2-yl]oxy}-2-methyl-N-(5-methylpyridin-2-yl)-2H-indazole-6-carboxamide]: 1550 nM; `Cn1cc2c(Oc3ccc(C(=O)N4CCCC4)c(F)c3)cc(C(=O)Nc3cnccn3)cc2n1` [Example 1D, 4-[3-fluoro-4-(pyrrolidin-1-ylcarbonyl)-phenoxy]-2-methyl-N-pyrazin-2-yl-2H-indazole-6-carboxamide]: 735 nM.
Same read-out and setting: next, `Cn1cc2c(Oc3cnc(C(=O)N4CCCC4)cn3)cc(C(=O)Nc3cnccn3)cc2n1` [Example 1B, 2-methyl-N-pyrazin-2-yl-4-{[5-(pyrrolidin-1-ylcarbonyl)pyrazin-2-yl]oxy}-2H-indazole-6-carboxamide]: 960 nM; `CCn1cc2c(Oc3ccc(S(C)(=O)=O)cc3)cc(C(=O)Nc3ccccn3)cc2n1` [Example 1Q, 2-ethyl-4-[4-(methylsulfonyl)phenoxy]-N-pyridin-2-yl-2H-indazole-6-carboxamide]: 2420 nM; `CCn1cc2c(Oc3cnc(C(=O)N(C)C)cn3)cc(C(=O)Nc3ccc(C)cn3)cc2n1` [Example 1O, 4-{[5-(dimethylcarbamoyl)pyrazin-2-yl]oxy}-2-ethyl-N-(5-methylpyridin-2-yl)-2H-indazole-6-carboxamide]: 776 nM.
Still for that read-out and setting: under `Cc1cnc(NC(=O)c2cc(Oc3ccc(S(C)(=O)=O)cc3)c3cn(C)nc3c2)cn1` [Example 1L, 2-methyl-N-(5-methylpyrazin-2-yl)-4-[4-(methylsulfonyl)phenoxy]-2H-indazole-6-carboxamide] stands 7810 nM; under `CCS(=O)(=O)c1ccc(Oc2cc(C(=O)Nc3ccccn3)cc3nn(C)cc23)cc1` [Example 1S, 4-[4-(ethylsulfonyl)phenoxy]-2-methyl-N-pyridin-2-yl-2H-indazole-6-carboxamide], 1340 nM.
As for `CN(C)C(=O)c1ncc(Oc2cc(C(=O)Nc3ccc(C(F)(F)F)cn3)cc3nn(C)cc23)cn1` [Example 1AB, 4-(2-(dimethylcarbamoyl)pyrimidin-5-yloxy)-2-methyl-N-(5-(trifluoromethyl)-pyridin-2-yl)-2H-indazole-6-carboxamide], the EC50 amounted to 1040 nM.
For the molecule `CCS(=O)(=O)c1ccc(Oc2cc(C(=O)Nc3cnc(C)cn3)cc3nn(C)cc23)cc1` [Example 1T, 4-[4-(ethylsulfonyl)phenoxy]-2-methyl-N-(5-methylpyrazin-2-yl)-2H-indazole-6-carboxamide], the EC50 was determined as 1950 nM.
For the molecule `Cc1ccc(NC(=O)c2cc(Oc3ccc(S(C)(=O)=O)cc3)c3cn(C)nc3c2)nc1` [Example 1M, 2-methyl-N-(5-methylpyridin-2-yl)-4-[4-(methylsulfonyl)phenoxy]-2H-indazole-6-carboxamide], the EC50 is 2660 nM.
Still for that read-out and setting: next, `CCn1cc2c(Oc3ccc(S(=O)(=O)CC)cc3)cc(C(=O)Nc3ccc(C)cn3)cc2n1` [Example 1AD, 2-ethyl-4-[4-(ethylsulfonyl)phenoxy]-N-(5-methylpyridin-2-yl)-2H-indazole-6-carboxamide]: 463 nM.
Turning to `Cc1cnc(NC(=O)c2cc(Oc3cnc(C(=O)N(C)C)cn3)c3cn(C)nc3c2)cn1` [Example 1F, 4-{[5-(dimethylcarbamoyl)pyrazin-2-yl]oxy}-2-methyl-N-(5-methylpyrazin-2-yl)-2H-indazole-6-carboxamide], the EC50 is 2490 nM.
`COc1cnc(NC(=O)c2cc(Oc3cnc(C(=O)N(C)C)cn3)c3cn(C)nc3c2)cn1` [Example 1H, 4-{[5-(dimethylcarbamoyl)pyrazin-2-yl]oxy}-N-(5-methoxypyrazin-2-yl)-2-methyl-2H-indazole-6-carboxamide]: the EC50 is 2770 nM.
Regarding `Cc1cnc(NC(=O)c2cc(Oc3cnc(C(F)(F)F)cn3)c3cn(C)nc3c2)cn1` [Example 1I, 2-methyl-N-(5-methylpyrazin-2-yl)-4-{[5-(trifluoromethyl)pyrazin-2-yl]oxy}-2H-indazole-6-carboxamide], the half-maximal effective concentration (EC50) stood at 19400 nM.

Staying with this test, now noted: Assay 1; 5 mM glucose; read-out: Glucokinase EC50.
Consider `Cc1cnc(NC(=O)c2cc(Oc3cnc(C(=O)N(C)C)nc3)c3cn(C)nc3c2)cn1` [Example 1Y, 4-{[2-(dimethylcarbamoyl)pyrimidin-5-yl]oxy}-2-methyl-N-(5-methylpyrazin-2-yl)-2H-indazole-6-carboxamide], for which the half-maximal effective concentration (EC50) was determined as 3340 nM.

As a reminder, the EC50 is the concentration that produces a half-maximal response.
